Results as given in patent US20240025862A1, “SUBSTITUTED N-PHENYLURACILS AND SALTS THEREOF, AND USE THEREOF AS HERBICIDAL ACTIVE SUBSTANCES” (Bayer Aktiengesellschaft, priority 2020, published 2024).

How the values were obtained:
Format in all cases: in vivo
[1] = test system: Oryza sativa (ORYSA); experiment: Post-emergence crop plant compatibility, greenhouse pot test (also comparative test C); settings: 1.25 g/ha, vs untreated controls
Method in brief: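 Rice and other crops sprayed post-emergence at one-leaf stage (2–3 weeks after sowing) with WP or EC formulations plus 0.5% additive at 600 l/ha water. Visual rating about 3 weeks later versus untreated controls (100% = dead, 0% = like control); suffixes a–c denote different doses.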

[2] = test system: Echinochloa crus-galli (ECHCG); experiment: Post-emergence herbicidal action, greenhouse pot test (also comparative test C)
Method in brief: (§1)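 Greenhouse pot plants in sandy loam were sprayed post-emergence at the one-leaf stage (2–3 weeks after sowing) with WP or EC formulations plus 0.5% additive at 600 l/ha water. Activity was rated visually after about 3 weeks versus untreated controls (100% = dead, 0% = like control); rates were 20 g/ha or less, and 5 g/ha or less in the comparative test.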

[3] = test system: Setaria viridis (SETVI); experiment: as above; settings: Setaria viridis, 504 h
Method in brief: as §1

[4] = test system: Alopecurus myosuroides (ALOMY); experiment: as above; settings: rated visually after about 3 weeks vs untreated controls, 100% = plants have died
Method in brief: as §1

[5] = test system: Matricaria inodora (MATIN); experiment: as above; settings: Tripleurospermum inodorum, 504 h, read-out: Post-emergence action against MATIN in %
Method in brief: as §1

[6] = test system: Triticum aestivum (TRZAS); experiment: Post-emergence crop plant compatibility, greenhouse pot test; settings: vs untreated controls
Method in brief: (§2)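 Seeds are sown in sandy loam and grown under controlled greenhouse conditions. At the one-leaf stage (2–3 weeks), foliage is sprayed with the formulated compound in water containing 0.5% additive at 600 l/ha. About 3 weeks later, injury is rated visually in % against untreated plants.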

[7] = test system: Brassica napus (BRSNW); experiment: as above; settings: for Post-emergence action against BRSNW (crop plant compatibility): vs untreated controls
Method in brief: as §2

[8] = test system: Viola tricolor (VIOTR); experiment: Post-emergence herbicidal action, greenhouse pot test; settings: Viola tricolor, 504 h, read-out: Post-emergence action against VIOTR
Method in brief: (§3)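 Greenhouse-grown weeds in sandy loam were sprayed post-emergence at the one-leaf stage, 2–3 weeks after sowing. Compounds were formulated as WP or EC in water with 0.5% additive at 600 l/ha, at rates of 20 g/ha or less. Visual rating after about 3 weeks used a scale from 0% (like untreated control) to 100% (plants dead).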

[9] = test system: Veronica persica (VERPE); experiment: as above; settings: Veronica persica, 504 h, read-out: Post-emergence action against VERPE
Method in brief: as §3

[10] = test system: Lolium rigidum (LOLRI); experiment: as above
Method in brief: as §3

[11] = test system: Amaranthus retroflexus (AMARE); experiment: as above; settings: Amaranthus retroflexus, 504 h, rated visually after about 3 weeks vs untreated controls, 100% = plants have died
Method in brief: as §3

[12] = test system: Abutilon theophrasti (ABUTH); experiment: as above; settings: Abutilon theophrasti, 504 h, rated visually after about 3 weeks vs untreated controls, 100% = plants have died
Method in brief: as §3

[13] = test system: Pharbitis purpurea (PHBPU); experiment: as above; settings: Ipomoea purpurea, 504 h, read-out: Post-emergence action against PHBPU in %
Method in brief: as §3

[14] = test system: Avena fatua (AVEFA); experiment: as above; settings: Avena fatua, 504 h, 20 g/ha, rated visually after about 3 weeks vs untreated controls, 100% = plants have died, read-out: Post-emergence action at 20 g/ha against AVEFA in %
Method in brief: as §3

Post-emergence action against ORYSA (crop plant compatibility) [1]: 0%
Post-emergence action against TRZAS (crop plant compatibility) ([6]; 1.25 g/ha): 20%
Post-emergence action against TRZAS (crop plant compatibility) ([6]; 5 g/ha): 20%
Post-emergence action against BRSNW (crop plant compatibility) ([7]; 1.25 g/ha): 20%
Post-emergence action against BRSNW (crop plant compatibility) ([7]; 20 g/ha): 20%
Compound: Cn1c(C(F)(F)F)cc(=O)n(-c2cc(Oc3ccccc3OCC(=O)OCc3ccccn3)c(Cl)cc2F)c1=O [I.7-276, Pyridin-2-ylmethyl (2-{2-chloro-4-fluoro-5-[3-methyl-2,6-dioxo-4-(trifluoromethyl)-3,6-dihydropyrimidin-1(2H)-yl]phenoxy}phenoxy)acetate]
Post-emergence action at 1.25 g/ha against ECHCG in % ([2]; 1.25 g/ha, rated visually after about 3 weeks vs untreated controls, 100% = plants have died): 90%
pest or weed control at 5 g/ha ([2]; Echinochloa crus-galli, 504 h, dosage 5 g/ha, read-out: Post-emergence action against ECHCG in %): 100%
pest or weed control at 20 g/ha ([2]; Echinochloa crus-galli, 504 h, dosage 20 g/ha, read-out: Post-emergence action against ECHCG in %): 100%
pest or weed control at 20 g/ha ([3]; 20 g/ha, read-out: Post-emergence action against SETVI): 100%
pest or weed control at 1.25 g/ha ([3]; dosage 1.25 g/ha, read-out: Post-emergence action against SETVI in %): 100%
pest or weed control at 5 g/ha ([3]; dosage 5 g/ha, read-out: Post-emergence action against SETVI in %): 100%
Post-emergence action at 1.25 g/ha against ALOMY in % ([4]; 1.25 g/ha): 90%
pest or weed control at 5 g/ha ([4]; Alopecurus myosuroides, 504 h, 5 g/ha, read-out: Post-emergence action at 5 g/ha against ALOMY in %): 100%
pest or weed control at 20 g/ha ([4]; Alopecurus myosuroides, 504 h, 20 g/ha, read-out: Post-emergence action at 20 g/ha against ALOMY in %): 100%
pest or weed control at 1.25 g/ha ([5]; dosage 1.25 g/ha): 100%
pest or weed control at 5 g/ha ([5]; dosage 5 g/ha): 100%
pest or weed control at 20 g/ha ([5]; dosage 20 g/ha): 100%
Post-emergence action at 5 g/ha against BRSNW in % ([7]; 5 g/ha, crop plant compatibility, observed effects on crop plant in comparison to untreated controls): 20%
pest or weed control at 1.25 g/ha ([8]; 1.25 g/ha): 100%
pest or weed control at 5 g/ha ([8]; 5 g/ha): 100%
pest or weed control at 20 g/ha ([8]; 20 g/ha): 100%
pest or weed control at 1.25 g/ha ([9]; 1.25 g/ha): 100%
pest or weed control at 5 g/ha ([9]; 5 g/ha): 100%
pest or weed control at 20 g/ha ([9]; 20 g/ha): 100%
Post-emergence action at 5 g/ha against LOLRI in % ([10]; 5 g/ha, rated visually after about 3 weeks vs untreated controls, 100% = plants have died): 80%
pest or weed control at 20 g/ha ([10]; Lolium rigidum, 504 h, dosage 20 g/ha, read-out: Post-emergence action against LOLRI in %): 100%
pest or weed control at 1.25 g/ha ([11]; 1.25 g/ha, read-out: Post-emergence action at 1.25 g/ha against AMARE in %): 100%
pest or weed control at 5 g/ha ([11]; 5 g/ha, read-out: Post-emergence action at 5 g/ha against AMARE in %): 100%
pest or weed control at 20 g/ha ([11]; 20 g/ha, read-out: Post-emergence action at 20 g/ha against AMARE in %): 100%
pest or weed control at 1.25 g/ha ([12]; 1.25 g/ha, read-out: Post-emergence action at 1.25 g/ha against ABUTH in %): 100%
pest or weed control at 5 g/ha ([12]; 5 g/ha, read-out: Post-emergence action at 5 g/ha against ABUTH in %): 100%
pest or weed control at 20 g/ha ([12]; 20 g/ha, read-out: Post-emergence action at 20 g/ha against ABUTH in %): 100%
pest or weed control at 1.25 g/ha ([13]; dosage 1.25 g/ha): 100%
pest or weed control at 5 g/ha ([13]; dosage 5 g/ha): 100%
pest or weed control at 20 g/ha ([13]; dosage 20 g/ha): 100%
pest or weed control at 20 g/ha [14]: 90%
